Source: patent EP2571508B1, “PROCESS FOR PRODUCING A SHRIMP HYDROLYSATE USING ELECTRODIALYSIS” (Marealis AS, priority 2010, dated 2011)
Peptide text beside a SMILES is read from it.

Molecular target: T1, ACE (Oryctolagus cuniculus, UniProt P12822)
T1 construct: purchased Sigma A 6778
T1 sequence (P12822 34-1310): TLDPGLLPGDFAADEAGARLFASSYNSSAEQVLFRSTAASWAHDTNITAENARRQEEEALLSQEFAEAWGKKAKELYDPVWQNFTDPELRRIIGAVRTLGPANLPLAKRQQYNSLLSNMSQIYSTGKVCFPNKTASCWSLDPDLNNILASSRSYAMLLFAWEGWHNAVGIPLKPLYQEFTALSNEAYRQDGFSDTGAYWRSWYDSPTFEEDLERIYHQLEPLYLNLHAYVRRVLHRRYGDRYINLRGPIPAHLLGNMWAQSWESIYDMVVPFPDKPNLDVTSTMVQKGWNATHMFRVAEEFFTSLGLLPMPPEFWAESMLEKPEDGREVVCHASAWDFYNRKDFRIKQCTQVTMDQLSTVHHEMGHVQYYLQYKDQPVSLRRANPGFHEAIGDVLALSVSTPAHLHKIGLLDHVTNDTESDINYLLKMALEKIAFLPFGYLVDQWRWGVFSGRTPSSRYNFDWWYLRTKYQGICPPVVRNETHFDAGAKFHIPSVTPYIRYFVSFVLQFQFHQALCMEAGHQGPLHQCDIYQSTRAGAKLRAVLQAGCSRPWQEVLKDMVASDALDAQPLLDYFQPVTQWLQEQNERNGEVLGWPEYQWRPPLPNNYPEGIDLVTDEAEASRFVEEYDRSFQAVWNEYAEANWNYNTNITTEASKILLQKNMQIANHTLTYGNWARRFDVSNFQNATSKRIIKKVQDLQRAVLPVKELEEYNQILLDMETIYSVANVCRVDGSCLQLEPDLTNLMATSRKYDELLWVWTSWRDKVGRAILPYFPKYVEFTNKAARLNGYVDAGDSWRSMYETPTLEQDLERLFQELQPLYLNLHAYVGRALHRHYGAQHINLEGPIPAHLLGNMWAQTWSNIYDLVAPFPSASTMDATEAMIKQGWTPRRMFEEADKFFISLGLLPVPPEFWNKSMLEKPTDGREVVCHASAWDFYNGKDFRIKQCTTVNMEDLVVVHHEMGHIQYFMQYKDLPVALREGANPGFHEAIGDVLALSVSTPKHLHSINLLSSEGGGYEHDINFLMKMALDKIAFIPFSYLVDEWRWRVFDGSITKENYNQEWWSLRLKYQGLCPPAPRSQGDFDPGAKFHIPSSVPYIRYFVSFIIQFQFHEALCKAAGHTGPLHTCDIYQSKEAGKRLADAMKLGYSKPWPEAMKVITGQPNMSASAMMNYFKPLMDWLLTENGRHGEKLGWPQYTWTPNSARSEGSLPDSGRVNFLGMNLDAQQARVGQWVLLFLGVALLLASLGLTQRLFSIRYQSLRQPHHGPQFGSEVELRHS
Experiment: ACE-inhibitory activity, Cushman and Cheung method (hippuric acid from HHL)
Assay type: biochemical
Details: synthesized peptides
Description: The hydrolysate of the present invention has ACE-inhibitory activity. ACE-inhibitory activity may be assayed using known methods, for example based on the method reported by Cushman and Cheung (1971) by measuring the end product hippuric acid (HA) from the enzymatic reaction between ACE (Sigma A 6778) and the substrate HHL (Sigma H 1635). (CUSHMAN, D. W. & CHEUNG, H. S. (1971). Concentrations of Angiotensin-Converting Enzyme in Tissues of Rat. Biochimica Et Biophysica Acta 250(1), 261-265). A different suitable assay is disclosed by Vermeirssen et al. (2002), J. Biochem Biophys. Methods 51 (2002), pages 75-87. Briefly, this is a spectrophotometric method in which ACE inhibition is measured using the substrate furanacryloyl-Phe-Gly-Gly and rabbit lung acetone extract as the ACE source. The IC50 may be determined.
The peptide composition of the RP-HPLC fractions was analysed using LCMS (liquid chromatography mass spectrometry) and individual peptides were sequenced using LC-MS/MS (liquid chromatography - tandem mass spectrometry). Peptides having the sequences identified by LC-MS/MS were then synthesized and analysed. Molecular weight and pl were calculated by ExPASy Proteomics Server. ACE-inhibitory activity was determined based on the Cushman and Cheung method mentioned elsewhere herein and expressed as the IC50 (concentration that inhibits 50% of enzyme activity).

CC(C)C[C@H](N)C(=O)N[C@@H](Cc1ccccc1)C(=O)O [LF] (H-Leu-Phe-OH)
IC50: 460 µM

CC(C)C[C@H](N)C(=O)N[C@H](C(=O)N[C@@H](CCCCN)C(=O)O)C(C)C [LVK] (H-Leu-Val-Lys-OH)
IC50: 225 µM

CC(C)C[C@H](NC(=O)[C@@H](N)CCCCN)C(=O)N1CCC[C@H]1C(=O)O [KLP] (H-Lys-Leu-Pro-OH)
IC50: 200 µM

CC(C)C[C@H](N)C(=O)N[C@@H](Cc1ccc(O)cc1)C(=O)N[C@@H](CCCCN)C(=O)O [LYK] (H-Leu-Tyr-Lys-OH)
IC50: 250 µM

CC(C)C[C@H](NC(=O)[C@H](C)N)C(=O)N1CCC[C@H]1C(=O)N[C@@H](Cc1c[nH]cn1)C(=O)O [ALPH] (H-ALPH-OH)
IC50: > 300 µM

CC(C)C[C@H](NC(=O)[C@@H](N)Cc1ccccc1)C(=O)O [FL] (H-Phe-Leu-OH)
IC50: 380 µM

CC(C)C[C@H](N)C(=O)N[C@H](C(=O)N[C@@H](C)C(=O)N[C@@H](CCCCN)C(=O)O)C(C)C [LVAK] (H-LVAK-OH)
IC50: > 300 µM

CC(C)C[C@H](NC(=O)[C@@H](N)C(C)C)C(=O)N[C@@H](C)C(=O)N[C@@H](Cc1c[nH]cn1)C(=O)O [VLAH*] (H-VLAH-OH)
IC50: > 300 µM

CC(C)C[C@H](N)C(=O)N[C@@H](CC(N)=O)C(=O)N[C@@H](C)C(=O)O [LNA*] (H-Leu-Asn-Ala-OH)
IC50: 200 µM

CC(C)C[C@H](NC(=O)[C@@H](N)CC(C)C)C(=O)N[C@H](C(=O)N[C@@H](CCCCN)C(=O)O)[C@@H](C)O [LLTK] (H-LLTK-OH)
IC50: > 300 µM

CC(C)C[C@H](N)C(=O)N[C@H](C(=O)N[C@@H](C)C(=O)N[C@@H](Cc1c[nH]cn1)C(=O)O)C(C)C [LVAH] (H-LVAH-OH)
IC50: > 300 µM

CC(C)C[C@H](NC(=O)[C@H](CC(C)C)NC(=O)[C@@H](N)CC(C)C)C(=O)N[C@@H](CCCCN)C(=O)O [LLLK] (H-LLLK-OH)
IC50: > 300 µM

CC(C)[C@H](NC(=O)[C@@H](N)CC(N)=O)C(=O)N[C@@H](Cc1ccc(O)cc1)C(=O)O [NVY] (H-Asn-Val-Tyr-OH)
IC50: > 300 µM

CC(C)C[C@H](N)C(=O)N[C@@H](CC(N)=O)C(=O)N1CCC[C@H]1C(=O)N[C@@H](CCCCN)C(=O)O [LNPK] (H-LNPK-OH)
IC50: > 300 µM

NCCCC[C@H](NC(=O)[C@@H]1CCCN1C(=O)[C@@H](N)CC(N)=O)C(=O)O [NPK*] (H-Asn-Pro-Lys-OH)
IC50: > 300 µM
